For 23 molecules, IC50 results are on record in patent publication US12473290B2, “Imidazopyridazine compounds useful as modulators of IL-12, IL-23 and/or IFN alpha responses” (BRISTOL-MYERS SQUIBB COMPANY, priority 2019, dated 2025).

The structures appear in SMILES notation. pIC50: −log10 of the molar value.

Assay [1] is described as follows: Kit225 T Cell Assay, IL-23-stimulated STAT-dependent luciferase reporter. It counts as cell-based. The following applies: Kit225 T cells, 20 ng/mL human recombinant IL-23, 5-6 hours, luciferase expression. How it is done: (§1) Kit225 T cells with a stably-integrated STAT-dependent luciferase reporter were plated in RPMI (Gibco) containing 10% heat-inactivated FBS (Gibco) and 100 U/mL PenStrep (Gibco). The cells were then stimulated with either 20 ng/mL human recombinant IL-23 or 200 U/mL human recombinant IFNα (PBL InterferonSource) for 5-6 hours. Luciferase expression was measured using the STEADY-GLO® Luciferase Assay System (Promega) according to the manufacturer's instructions. Inhibition data were calculated by comparison to no inhibitor control wells for 0% inhibition and non-stimulated control wells for 100% inhibition. Dose response curves were generated to determine the concentration required to inhibit 50% of cellular response (IC50) as derived by non-linear regression analysis.
(In general: In a reporter assay the amount or activity of a reporter protein is the signal.)

In assay [2] the test system is IFNα Kit225 Reporter (Kit225 T cells with a stably-integrated STAT-dependent luciferase reporter, stimulated with IFNα). Nature of the assay: Kit225 T Cell Assay, IFNα-stimulated STAT-dependent luciferase reporter. It counts as cell-based. The following applies: 200 U/mL human recombinant IFNα, 5-6 hours, luciferase expression. How it is done:
as §1

The term pIC50 denotes the negative decadic logarithm of the IC50, by convention in mol/L. As to `CC(C)(C)Oc1nc(Nc2cc(NC3CCOCC3)nn3c(C#N)cnc23)ccc1C(=O)N1CCCC1` [Example 24, 8-{[6-(tert-butoxy)-5-(pyrrolidine-1-carbonyl)pyridin-2-yl]amino}-6-[(oxan-4-yl)amino]imidazo[1,2-b]pyridazine-3-carbonitrile], the results for the negative logarithm of the IC50 (pIC50) in assay [1] and in assay [2] were 6.15 and 6.22, respectively.

In the case of `CC(C)(O)C(=O)Nc1cccc(Nc2cc(NC3CCOCC3)nn3c(C#N)cnc23)n1` [Example 25, N-[6-({3-cyano-6-[(oxan-4-yl)amino]imidazo[1,2-b]pyridazin-8-yl}amino)pyridin-2-yl]-2-hydroxy-2-methylpropanamide], the pIC50 in assay [1] is 6.47; in assay [2], 6.35.

Turning to `CC(C)(C)C(=O)Nc1cccc(Nc2cc(NCC3CC3)nn3c(C#N)cnc23)n1` [Example 26, N-[6-({3-cyano-6-[(cyclopropylmethyl)amino]imidazo[1,2-b]pyridazin-8-yl}amino)pyridin-2-yl]-2,2-dimethylpropanamide], the pIC50 in assay [1] was 6.05; in assay [2] it was 6.70.

As to `N#Cc1cnc2c(Nc3cccc(NC(=O)C4CC4)n3)cc(NCC3CC3)nn12` [Example 27, N-[6-({3-cyano-6-[(cyclopropylmethyl)amino]imidazo[1,2-b]pyridazin-8-yl}amino)pyridin-2-yl]cyclopropanecarboxamide], the pIC50 is 6.51 in assay [1] and 6.80 in assay [2].

Regarding `CC(C)(C)CNc1cc(Nc2cccc(NC(=O)C3CC3)n2)c2ncc(C#N)n2n1` [Example 28, N-[6-({3-cyano-6-[(2,2-dimethylpropyl)amino]imidazo[1,2-b]pyridazin-8-yl}amino)pyridin-2-yl]cyclopropanecarboxamide], the pIC50 is 6.59 in assay [1] and 6.34 in assay [2].

Take `CCNc1nc(Nc2cc(N[C@H]3CCCC[C@@H]3O)nn3c(C#N)cnc23)ccc1C(=O)N1CCCC1` [Example 29, 8-{[6-(ethylamino)-5-(pyrrolidine-1-carbonyl)pyridin-2-yl]amino}-6-{[(1S,2S)-2-hydroxycyclohexyl]amino}imidazo[1,2-b]pyridazine-3-carbonitrile]: the pIC50 was 6.85 in assay [1] and 6.42 in assay [2].

As for `CN(C)c1nc(Nc2cc(N[C@@H]3CCCC[C@H]3O)nn3c(C#N)cnc23)ccc1C(=O)N1CCN(c2ccccc2F)CC1` [Example 30, 8-{[6-(dimethylamino)-5-[4-(2-fluorophenyl)piperazine-1-carbonyl]pyridin-2-yl]amino}-6-{[(1R,2R)-2-hydroxycyclohexyl]amino}imidazo[1,2-b]pyridazine-3-carbonitrile], the pIC50 in assay [1] was 6.41; in assay [2], 6.14.

On to `CN(CCc1ccccn1)C(=O)c1ccc(Nc2cc(N[C@@H]3CCCC[C@H]3O)nn3c(C#N)cnc23)nc1N(C)C` [Example 31, 6-[(3-cyano-6-{[(1R,2R)-2-hydroxycyclohexyl]amino}imidazo[1,2-b]pyridazin-8-yl)amino]-2-(dimethylamino)-N-methyl-N-[2-(pyridin-2-yl)ethyl]pyridine-3-carboxamide], for which the pIC50 in assay [1] was 6.19; in assay [2], 6.06.

Regarding `COCCNC(=O)c1ccc(Nc2cc(N[C@@H]3CCCC[C@H]3O)nn3c(C#N)cnc23)nc1N(C)C` [Example 32, 6-[(3-cyano-6-{[(1R,2R)-2-hydroxycyclohexyl]amino}imidazo[1,2-b]pyridazin-8-yl)amino]-2-(dimethylamino)-N-(2-methoxyethyl)pyridine-3-carboxamide], the pIC50 was 6.17 in assay [1] and 6.12 in assay [2].

With `N#Cc1cnc2c(Nc3ccc(C(=O)N4CCCC4C(F)(F)F)c(OCC(F)F)n3)cc(N[C@@H]3CCCC[C@H]3O)nn12` (stereo partly drawn) [Example 33, 8-{[6-(2,2-difluoroethoxy)-5-[2-(trifluoromethyl)pyrrolidine-1-carbonyl]pyridin-2-yl]amino}-6-{[(1R,2R)-2-hydroxycyclohexyl]amino}imidazo[1,2-b]pyridazine-3-carbonitrile], the pIC50 in assay [1] is 6.17; in assay [2] it was 6.07.

For `N#Cc1cnc2c(Nc3ccc(C(=O)N4C[C@H]5CC[C@@H]4C5)c(OCC(F)F)n3)cc(N[C@@H]3CCCC[C@H]3O)nn12` [Example 34, 8-({5-[(1R,4S)-2-azabicyclo[2.2.1]heptane-2-carbonyl]-6-(2,2-difluoroethoxy)pyridin-2-yl}amino)-6-{[(1R,2R)-2-hydroxycyclohexyl]amino}imidazo[1,2-b]pyridazine-3-carbonitrile], the values for the pIC50 in assay [1] and in assay [2] were 6.37 and 6.24, respectively.

Take `N#Cc1cnc2c(Nc3ccc(C(=O)NCC4CCCO4)c(OCC(F)F)n3)cc(N[C@@H]3CCCC[C@H]3O)nn12` (stereo partly drawn) [Example 35, 6-[(3-cyano-6-{[(1R,2R)-2-hydroxycyclohexyl]amino}imidazo[1,2-b]pyridazin-8-yl)amino]-2-(2,2-difluoroethoxy)-N-[(oxolan-2-yl)methyl]pyridine-3-carboxamide]: the pIC50 in assay [1] is 6.20; in assay [2], 6.21.

`C[C@@H]1COC[C@H](C)N1C(=O)c1ccc(Nc2cc(N[C@H]3CCCC[C@@H]3O)nn3c(C#N)cnc23)nc1OCC(F)F` [Example 36, 8-{[6-(2,2-difluoroethoxy)-5-[(3R,5S)-3,5-dimethylmorpholine-4-carbonyl]pyridin-2-yl]amino}-6-{[(1S,2S)-2-hydroxycyclohexyl]amino}imidazo[1,2-b]pyridazine-3-carbonitrile]: the pIC50 is 6.30 in assay [1] and 6.12 in assay [2].

`CC(=O)NCc1ccc(-c2cccc(Nc3cc(N[C@@H]4CCCC[C@H]4O)nn4c(C#N)cnc34)n2)cc1` [Example 37, N-[(4-{6-[(3-cyano-6-{[(1R,2R)-2-hydroxycyclohexyl]amino}imidazo[1,2-b]pyridazin-8-yl)amino]pyridin-2-yl}phenyl)methyl]acetamide]: the results for the pIC50 in assay [1] and in assay [2] were 6.33 and 6.26, respectively.

As to `CS(=O)(=O)NCc1ccc(-c2cccc(Nc3cc(N[C@@H]4CCCC[C@H]4O)nn4c(C#N)cnc34)n2)cc1` [Example 38, N-[(4-{6-[(3-cyano-6-{[(1R,2R)-2-hydroxycyclohexyl]amino}imidazo[1,2-b]pyridazin-8-yl)amino]pyridin-2-yl}phenyl)methyl]methanesulfonamide], the pIC50 in assay [1] is 6.05; in assay [2], 6.12.

For `N#Cc1cnc2c(Nc3cccc(N4CCN(S(=O)(=O)N5CCOCC5)CC4)n3)cc(N[C@@H]3CCCC[C@H]3O)nn12` [Example 39, 6-{[(1R,2R)-2-hydroxycyclohexyl]amino}-8-({6-[4-(morpholine-4-sulfonyl)piperazin-1-yl]pyridin-2-yl}amino)imidazo[1,2-b]pyridazine-3-carbonitrile], the pIC50 was 6.25 in assay [1] and 6.10 in assay [2].

As to `CC(=O)N1[C@H](C)CN(c2cccc(Nc3cc(NC45CC6CC(CC(O)(C6)C4)C5)nn4c(C#N)cnc34)n2)C[C@@H]1C` [Example 40, 8-({6-[(3R,5S)-4-acetyl-3,5-dimethylpiperazin-1-yl]pyridin-2-yl}amino)-6-[(3-hydroxyadamantan-1-yl)amino]imidazo[1,2-b]pyridazine-3-carbonitrile], the negative logarithm of the IC50 (pIC50) in assay [1] is 6.59; in assay [2] it was 6.41.

As for `C[C@@H](NC(=O)c1cccc(Nc2cc(NC34CC5CC(CC(O)(C5)C3)C4)nn3c(C#N)cnc23)n1)C(F)(F)F` [Example 41, 6-({3-cyano-6-[(3-hydroxyadamantan-1-yl)amino]imidazo[1,2-b]pyridazin-8-yl}amino)-N-[(2R)-1,1,1-trifluoropropan-2-yl]pyridine-2-carboxamide], the results for the pIC50 in assay [1] and in assay [2] were 6.96 and 6.49, respectively.

As for `CC(C)(CC(N)=O)NC(=O)c1cccc(Nc2cc(NC34CC5CC(CC(O)(C5)C3)C4)nn3c(C#N)cnc23)n1` [Example 42, 3-{[6-({3-cyano-6-[(3-hydroxyadamantan-1-yl)amino]imidazo[1,2-b]pyridazin-8-yl}amino)pyridin-2-yl]formamido}-3-methylbutanamide], the pIC50 in assay [1] is 6.15; in assay [2], 6.19.

Regarding `CC(C)Oc1nc(Nc2cc(NC3CCOCC3)nn3c(C#N)cnc23)ccc1C(=O)N1CCCC1` [Example 43, 6-[(oxan-4-yl)amino]-8-{[6-(propan-2-yloxy)-5-(pyrrolidine-1-carbonyl)pyridin-2-yl]amino}imidazo[1,2-b]pyridazine-3-carbonitrile], the pIC50 in assay [1] was 6.80; in assay [2] it was 6.35.

Regarding `CN(C(=O)c1ccc(Nc2cc(NC3CCOCC3)nn3c(C#N)cnc23)nc1OCC(F)F)C1COC1` [Example 44, 6-({3-cyano-6-[(oxan-4-yl)amino]imidazo[1,2-b]pyridazin-8-yl}amino)-2-(2,2-difluoroethoxy)-N-methyl-N-(oxetan-3-yl)pyridine-3-carboxamide], the pIC50 in assay [1] was 6.62; in assay [2], 6.07.

For the molecule `N#Cc1cnc2c(Nc3ccc(C(=O)NCC4CCCO4)c(OCC(F)F)n3)cc(NC3CCOCC3)nn12` (stereo not shown) [Example 45, 6-({3-cyano-6-[(oxan-4-yl)amino]imidazo[1,2-b]pyridazin-8-yl}amino)-2-(2,2-difluoroethoxy)-N-[(oxolan-2-yl)methyl]pyridine-3-carboxamide], the pIC50 is 6.13 in assay [1] and 6.59 in assay [2].

As for `N#Cc1cnc2c(Nc3ccc(C(=O)N4CC[C@@H](C#N)C4)c(OCC(F)F)n3)cc(NC3CCOCC3)nn12` [Example 47, (3R)-1-[6-({3-cyano-6-[(oxan-4-yl)amino]imidazo[1,2-b]pyridazin-8-yl}amino)-2-(2,2-difluoroethoxy)pyridine-3-carbonyl]pyrrolidine-3-carbonitrile], the negative logarithm of the IC50 (pIC50) in assay [1] was 6.47; in assay [2] it was 6.80.
